Data from patent publication US7288256B1, “T cell epitopes of the major allergens from dermatophagoides (house dust mite)” (Merck Patent GmbH, priority 1991, dated 2007).
Residues, ends and D or L forms follow the SMILES beside them.

What was measured:
[1] = pH-solubility profile of candidate peptides (HPLC of filtrate); assay type: physicochemical; conditions: for solubility thermodynamic at 24 h: at a pH in the pH range of pH 6 to pH 8, 50 mM sodium phosphate, about 22° C.; for solubility (in words, against the superior solubility standard of 3 mg/ml): development of DPII-22.14 from DpII-22
Protocol: Stock solution A: 0.66 g […] of monobasic sodium phosphate monohydrate U.S.P. and 50 mg EDTA disodium dihydrate, U.S.P. were dissolved in 100 mL of WFI. The solution was filtered through a 0.2 micron filter
Stock solution B: 0.71 g […] of dibasic sodium phosphate U.S.P. were disolved in 100 ml WFI. The solution was filtered through a 0.2 micron filter.
Dispersions A and B were sonicated for 2 minutes for good homogeneity. A small volume was pipetted from each dispersion into a labeled eppendoff vial according to the following volume ratio:
The resultant solutions/suspensions were stored in the dark at about 22° C.±2 for 24 hours without agitation. The solutions were filtered and filtrates were analyzed for pH and peptide concentration.

[2] = pH-stability profile of candidate peptides (percent degradant peak area by HPLC); conditions: for solution stability in equal concentration combination: 3, 2 and 1 mg/ml per peptide, 24 hours at about 5° C. and about 22° C., common window within pH 6 to pH 8; for stability (in words): single peptide, aqueous buffer, pH 6 to pH 8, development of DPII-22.14
Protocol: The concentration of filtered peptide solutions was determined by HPLC analysis. In this experiment, the solubility of peptide at each pH is defined as the amount of peptide remaining in solution after filtration through a membrane filter having a 0.2 micrometer pore size. The extent of degradation of peptides was estimated by calculating the percent of total degradant peak area over the total peak area.

CC(C)C[C@H](NC(=O)[C@H](Cc1ccc(O)cc1)NC(=O)[C@H](C)NC(=O)[C@H](CO)NC(=O)[C@H](CCC(=O)O)NC(=O)[C@@H](NC(=O)[C@H](C)NC(=O)[C@H](C)NC(=O)[C@@H](N)C(C)C)[C@@H](C)O)C(=O)N[C@@H](C)C(=O)N[C@@H](Cc1ccc(O)cc1)C(=O)N[C@@H](CCCNC(=N)N)C(=O)N[C@@H](CC(N)=O)C(=O)N[C@H](C(=O)N[C@@H](CO)C(=O)N[C@@H](CC(C)C)C(=O)N[C@@H](CC(=O)O)C(=O)N[C@@H](CC(C)C)C(=O)N[C@@H](CO)C(=O)N[C@@H](CCC(=O)O)C(=O)N[C@@H](CCC(N)=O)C(=O)N[C@@H](CCC(=O)O)C(=O)N[C@@H](CC(C)C)C(=O)N[C@H](C(=O)N[C@@H](CC(=O)O)C(=O)O)C(C)C)[C@@H](C)O [DF I-22.2] (H-VAATESAYLAYRNTSLDLSEQELVD-OH; N-terminus and C-terminus assumed)
solubility thermodynamic at 24 h [1]: > 3000 µg/mL | solution stability in equal concentration combination [2]: acceptable solution stability

CC[C@H](C)[C@H](NC(=O)[C@H](CCC(=O)O)NC(=O)[C@H](C)NC(=O)[C@@H]1CCCN1C(=O)[C@H](C)NC(=O)[C@H](CC(N)=O)NC(=O)CNC(=O)[C@H](CC(N)=O)NC(=O)[C@@H](NC(=O)[C@@H](N)CO)[C@@H](C)CC)C(=O)N[C@@H](CC(=O)O)C(=O)N[C@@H](CC(C)C)C(=O)N[C@@H](CCCNC(=N)N)C(=O)N[C@@H](CCC(N)=O)C(=O)N[C@@H](CCSC)C(=O)N[C@@H](CCCNC(=N)N)C(=O)N[C@H](C(=O)N[C@H](C(=O)N[C@H](C(=O)N1CCC[C@H]1C(=O)N[C@H](C(=O)N[C@@H](CCCNC(=N)N)C(=O)N[C@@H](CCSC)C(=O)N[C@@H](CCC(N)=O)C(=O)O)[C@@H](C)CC)[C@@H](C)O)C(C)C)[C@@H](C)O [DP I-21.2] (H-SINGNAPAEIDLRQMRTVTPIRMQ-OH; N-terminus and C-terminus assumed)
solubility thermodynamic at 24 h [1]: > 3000 µg/mL | solution stability in equal concentration combination [2]: acceptable solution stability

CC(C)[C@H](NC(=O)CNC(=O)[C@H](CCC(=O)O)NC(=O)[C@H](CCC(=O)O)NC(=O)[C@@H](N)CC(=O)O)C(=O)N[C@H](C(=O)N[C@@H](CCC(N)=O)C(=O)N[C@@H](CCC(=O)O)C(=O)N[C@@H](CO)C(=O)N[C@@H](Cc1ccc(O)cc1)C(=O)N[C@@H](Cc1ccc(O)cc1)C(=O)N[C@@H](CCCNC(=N)N)C(=O)N[C@@H](Cc1ccc(O)cc1)C(=O)N[C@H](C(=O)N[C@@H](C)C(=O)N[C@@H](CCCNC(=N)N)C(=O)N[C@@H](CCC(=O)O)C(=O)N[C@@H](CCC(N)=O)C(=O)N[C@@H](CO)C(=O)N[C@@H](CS)C(=O)N[C@@H](CCCNC(=N)N)C(=O)N[C@@H](CCCNC(=N)N)C(=O)N1CCC[C@H]1C(=O)N[C@@H](CC(N)=O)C(=O)N[C@@H](C)C(=O)N[C@@H](CCC(=O)O)C(=O)O)C(C)C)C(C)C [DP I-23.31] (H-DEEGVVQESYYRYVAREQSCRRPNAE-OH; N-terminus and C-terminus assumed)
solubility thermodynamic at 24 h [1]: > 3000 µg/mL | solution stability in equal concentration combination [2]: acceptable solution stability

CC[C@H](C)[C@H](NC(=O)CNC(=O)[C@H](CCC(=O)O)NC(=O)[C@@H](N)CC(=O)O)C(=O)N[C@@H](CCCCN)C(=O)N[C@@H](CC(=O)O)C(=O)N[C@@H](CC(C)C)C(=O)N[C@@H](CC(=O)O)C(=O)N[C@@H](C)C(=O)N[C@@H](Cc1ccccc1)C(=O)N[C@@H](CCCNC(=N)N)C(=O)N[C@@H](Cc1c[nH]cn1)C(=O)N[C@@H](Cc1ccc(O)cc1)C(=O)N[C@@H](CC(=O)O)C(=O)NCC(=O)N[C@@H](CCCNC(=N)N)C(=O)N[C@H](C(=O)N[C@H](C(=O)N[C@H](C(=O)N[C@@H](CCC(N)=O)C(=O)N[C@@H](CCCNC(=N)N)C(=O)N[C@@H](CC(=O)O)C(=O)N[C@@H](CC(N)=O)C(=O)NCC(=O)N[C@@H](Cc1ccc(O)cc1)C(=O)N[C@@H](CCC(=O)O)C(=O)O)[C@@H](C)CC)[C@@H](C)CC)[C@@H](C)O [DP I-26.6] (H-DEGIKDLDAFRHYDGRTIIQRDNGYE-OH; N-terminus and C-terminus assumed)
solubility thermodynamic at 24 h [1]: > 3000 µg/mL | solution stability in equal concentration combination [2]: acceptable solution stability

CC[C@H](C)[C@H](NC(=O)[C@H](CO)NC(=O)[C@H](C)NC(=O)[C@H](CCCCN)NC(=O)[C@@H](NC(=O)[C@H](CCC(=O)O)NC(=O)[C@@H](NC(=O)[C@H](CCCCN)NC(=O)[C@H](C)NC(=O)[C@@H](NC(=O)[C@H](CCCCN)NC(=O)[C@@H](NC(=O)[C@H](CC(N)=O)NC(=O)[C@H](CCC(N)=O)NC(=O)[C@H](CC(N)=O)NC(=O)[C@H](C)NC(=O)[C@H](CCC(=O)O)NC(=O)[C@H](Cc1ccccc1)NC(=O)[C@@H](NC(=O)[C@H](C)NC(=O)[C@H](CCC(=O)O)NC(=O)[C@H](CC(C)C)NC(=O)[C@H](CCC(N)=O)NC(=O)[C@@H](N)CCCCN)C(C)C)[C@@H](C)O)[C@@H](C)O)[C@@H](C)CC)[C@@H](C)CC)C(=O)N[C@@H](CC(=O)O)C(=O)NCC(=O)N[C@@H](CC(C)C)C(=O)N[C@@H](CCC(=O)O)C(=O)N[C@H](C(=O)N[C@@H](CCCCN)C(=O)O)C(C)C [DP II-22.2] (H-KQLEAVFEANQNTKTAKIEIKASIDGLEVK-OH)
solubility (in words, against the superior solubility standard of 3 mg/ml) [1]: solubility did not reach the standard | stability (in words) [2]: stability improved substantially

CC[C@H](C)[C@H](NC(=O)[C@H](CCC(=O)O)NC(=O)[C@@H](NC(=O)[C@H](CCCCN)NC(=O)[C@H](C)NC(=O)[C@@H](NC(=O)[C@H](CCCCN)NC(=O)[C@@H](NC(=O)[C@H](CC(N)=O)NC(=O)[C@H](CCC(N)=O)NC(=O)[C@H](CC(N)=O)NC(=O)[C@H](C)NC(=O)[C@H](CCC(=O)O)NC(=O)[C@H](Cc1ccccc1)NC(=O)[C@@H](NC(=O)[C@H](C)NC(=O)[C@H](CCC(=O)O)NC(=O)[C@H](CC(C)C)NC(=O)[C@H](CCC(N)=O)NC(=O)[C@H](CCCCN)NC(=O)[C@@H](N)CC(=O)O)C(C)C)[C@@H](C)O)[C@@H](C)O)[C@@H](C)CC)C(=O)N[C@@H](CCCCN)C(=O)N[C@@H](C)C(=O)N[C@@H](CO)C(=O)N[C@H](C(=O)N[C@@H](CC(=O)O)C(=O)N[C@@H](CCC(=O)O)C(=O)O)[C@@H](C)CC [DP II-22.5] (H-DKQLEAVFEANQNTKTAKIEIKASIDE-OH; N-terminus and C-terminus assumed)
solubility (in words, against the superior solubility standard of 3 mg/ml) [1]: very soluble

CC[C@H](C)[C@H](NC(=O)[C@H](CO)NC(=O)[C@H](C)NC(=O)[C@H](CCCCN)NC(=O)[C@@H](NC(=O)[C@H](CCC(=O)O)NC(=O)[C@@H](NC(=O)[C@H](CCCCN)NC(=O)[C@H](C)NC(=O)[C@@H](NC(=O)[C@H](CCCCN)NC(=O)[C@@H](NC(=O)[C@H](CC(N)=O)NC(=O)[C@H](CCC(N)=O)NC(=O)[C@H](CC(N)=O)NC(=O)[C@H](C)NC(=O)[C@H](CCC(=O)O)NC(=O)[C@H](Cc1ccccc1)NC(=O)[C@@H](NC(=O)[C@H](C)NC(=O)[C@H](CCC(=O)O)NC(=O)[C@H](CC(C)C)NC(=O)[C@H](CCC(N)=O)NC(=O)[C@H](CCCCN)NC(=O)[C@@H](N)CC(=O)O)C(C)C)[C@@H](C)O)[C@@H](C)O)[C@@H](C)CC)[C@@H](C)CC)C(=O)N[C@@H](CC(=O)O)C(=O)NCC(=O)N[C@@H](CC(C)C)C(=O)N[C@@H](CCC(=O)O)C(=O)N[C@H](C(=O)N[C@@H](CC(=O)O)C(=O)O)C(C)C [DP II-22.6] (H-DKQLEAVFEANQNTKTAKIEIKASIDGLEVD-OH)
solubility (in words, against the superior solubility standard of 3 mg/ml) [1]: solubility did not reach the standard | stability (in words) [2]: stability improved substantially

CC(C)C[C@H](NC(=O)[C@H](CCC(=O)O)NC(=O)[C@H](CCCCN)NC(=O)[C@@H](N)CC(=O)O)C(=O)N[C@@H](CCC(=O)O)C(=O)N[C@@H](C)C(=O)N[C@H](C(=O)N[C@@H](Cc1ccccc1)C(=O)N[C@@H](CCC(=O)O)C(=O)N[C@@H](C)C(=O)N[C@@H](CC(N)=O)C(=O)N[C@@H](CCC(N)=O)C(=O)N[C@@H](CC(N)=O)C(=O)N[C@H](C(=O)N[C@@H](CCCCN)C(=O)N[C@H](C(=O)N[C@@H](C)C(=O)N[C@@H](CCCCN)C(=O)N[C@@H](C)C(=O)N[C@@H](CCC(=O)O)C(=O)O)[C@@H](C)O)[C@@H](C)O)C(C)C [DP II-22.14] (H-DKELEAVFEANQNTKTAKAE-OH; N-terminus and C-terminus assumed)
solubility thermodynamic at 24 h [1]: > 3000 µg/mL | solution stability in equal concentration combination [2]: acceptable solution stability

CC[C@H](C)[C@H](NC(=O)[C@H](CO)NC(=O)[C@H](C)NC(=O)[C@H](CCCCN)NC(=O)[C@@H](NC(=O)[C@H](CCC(=O)O)NC(=O)[C@@H](NC(=O)[C@H](CCCCN)NC(=O)[C@H](C)NC(=O)[C@@H](NC(=O)[C@H](CCCCN)NC(=O)[C@@H](NC(=O)[C@H](CC(N)=O)NC(=O)[C@H](CCC(N)=O)NC(=O)[C@H](CC(N)=O)NC(=O)[C@H](C)NC(=O)[C@H](CCC(=O)O)NC(=O)[C@H](Cc1ccccc1)NC(=O)[C@@H](NC(=O)[C@H](C)NC(=O)[C@H](CCC(=O)O)NC(=O)[C@H](CC(C)C)NC(=O)[C@@H](N)CCC(N)=O)C(C)C)[C@@H](C)O)[C@@H](C)O)[C@@H](C)CC)[C@@H](C)CC)C(=O)N[C@@H](CC(=O)O)C(=O)NCC(=O)N[C@@H](CC(C)C)C(=O)N[C@@H](CCC(=O)O)C(=O)N[C@H](C(=O)O)C(C)C [DP II-22] (H-QLEAVFEANQNTKTAKIEIKASIDGLEV-OH; N-terminus and C-terminus assumed)
solubility (in words, against the superior solubility standard of 3 mg/ml) [1]: did not meet the “superior solubility” requirement of 3 mg/ml | stability (in words) [2]: stable | stability (in words) ([2]; listed as QLEAVFEANQNTKTAKIEIKASIDGLEV): nor did it meet the stability requirement
